From patent US20120328719A1, “EXTERNAL PREPARATION FOR SKIN” (Shiseido Company, Ltd., priority 2010, published 2012)

Tests used:
[1] = tested on: skin model (EFT-400, MatTek Corp.); assay: Immunostaining of skin models; type: cell-based; settings: skin model sections, vs control group; for expression level of heparan sulfate (immunostaining): days 4 and 8 of culturing, FIG. 4E-4H; for expression level of loricrin (immunostaining): FIG. 5A-5D; for expression level of filaggrin (immunostaining): FIG. 5E-5H
Description: A skin model (EFT-400, MatTek Corp.) was cultured in a special-purpose medium (EFT-400-ASY, MatTek Corp.). Dimethylsulfoxide (DMSO) and ethanol were added to the special-purpose medium to a final concentration of 0.1% for use as a control group, 50 mM 1-[4-(1H-benzoimidazol-2-yl)-phenyl]-3-[4-(1H-benzoimidazol-2-yl)-phenyl]urea (solvent: DMSO) were added to the special-purpose medium to a final concentration of 50 μM for use as a heparanase inhibitor group, 10 mM N-hydroxy-2-[[(4-methoxyphenyl)sulfonyl](3-picolyl)amino]-3-methylbutaneamide hydrochloride (CGS27023A, solvent: ethanol) were added to the special-purpose medium to a final concentration of 10 μM for use as an MMP inhibitor group, and 50 mM 1-[4-(1H-benzoimidazol-2-yl)-phenyl]-3-[4-(1H-benzoimidazol-2-yl)-phenyl]urea (solvent: DMSO) and 10 mM CGS27023A (solvent: ethanol) were added to the special-purpose medium to final concentrations of 50 μM and 10 μM, respectively, for use as a combination heparanase inhibitor+metalloproteinase (MMP) inhibitor group. The medium was replaced daily at 2 mL/well, and the skin model was recovered and used for experimentation on days 4 and 8 of culturing. In addition, during replacement of the medium, all of the culture fluid was collected and stored at −80° C.° for use in the experiments described below.
The skin models following culturing were cut in half with a scalpel and placed in acetone at 4° C. followed by allowing to stand undisturbed for 48 hours at 4° C. The solution was replaced with acetone, methyl benzoate and xylene in that order followed by embedding in paraffin to prepare paraffin blocks in accordance with the AMeX method. Tissue sections having a thickness of 3 μm were prepared followed by immunostaining with perlecan (FIGS. 4A to 4D), heparan sulfate (FIGS. 4E to 4H), loricrin (FIGS. 5A to 5D), filaggrin (FIGS. 5E to 5H) and Ki67 (FIG. 6) on days 4 and 8 of culturing. […] In addition, in the groups containing heparanase inhibitor, the presence of proliferative cells positive for Ki67 was clearly determined to be maintained.

[2] = Measurement of moisture transpiration rate constants (filter paper weight loss); type: physicochemical; settings: 10 μl on filter paper, slope 3 to 8 min, FIG. 3
Description: Heparan sulfate (n=5), chondroitin sulfate A (n=5), chondroitin sulfate B (n=5), keratan sulfate (n=5) and hyaluronic acid (n=5) were dissolved in MilliQ to prepare 0.2% aqueous solutions of each, and 5.0% glycerin (n=5) and MilliQ were prepared for use as a comparative sample (n refers to the respective number of samples). Filter paper cut to a size of 2 cm×2 cm was placed on a balance, and the filter paper was impregnated with 10 μl of each solution followed by measuring the weight of the filter paper for 8 minutes at 1 minute intervals. The weight (mg) of the filter paper from 3 to 8 minutes after the start of measurement was plotted on the vertical axis, elapsed time (min) was plotted on the horizontal axis, and the slope (mg/min) of the resulting line was calculated as the moisture transpiration rate constant (FIG. 3).

[3] = tested on: skin model (EFT-400, MatTek Corp.); assay: Measurement of hyaluronic acid levels in cultured skin model; type: cell-based; settings: heparanase inhibitor 50 μM, CGS27023A 10 μM, FIG. 1B
Description: A skin model (EFT-400, MatTek Corp.) was cultured in a special-purpose medium (EFT-400-ASY, MatTek Corp.). […]
Measurement of hyaluronic acid levels was carried out on the aforementioned cultured control group (n=5), MMP inhibitor group (n=5), heparanase inhibitor group (n=5) and combination MMP inhibitor+heparanase inhibitor group (n=5) (n refers to the number of each skin model used in testing). […] The culture supernatants stored at −80° C. were then thawed and hyaluronic acid levels in these solutions were then measured with a hyaluronic acid assay kit (Seikagaku Corp.).

Compound | expression level of heparan sulfate (immunostaining) [1] | expression level of loricrin (immunostaining) [1] | expression level of filaggrin (immunostaining) [1] | moisture transpiration rate constant ([2]; 5.0% glycerin comparative sample) | hyaluronic acid levels in culture supernatant [3] | moisture transpiration rate constant ([2]; 0.2% aqueous solution)
COc1ccc(S(=O)(=O)N(Cc2cccnc2)C(C(=O)NO)C(C)C)cc1.Cl (stereo not drawn) [MMP inhibitor, N-hydroxy-2-[[(4-methoxyphenyl)sulfonyl](3-picolyl)amino]-3-methylbutaneamide hydrochloride] | increased | increased | increased |  |  | 
OCC(O)CO [glycerin] |  |  |  | roughly the same |  | 
O=C(Nc1ccc(-c2nc3ccccc3[nH]2)cc1)Nc1ccc(-c2nc3ccccc3[nH]2)cc1 [heparanase inhibitor, 1-[4-(1H-benzoimidazol-2-yl)-phenyl]-3-[4-(1H-benzoimidazol-2-yl)-phenyl]urea] | increased | increased | increased |  | significant decreases | 
hyaluronic acid |  |  |  |  |  | remarkably low
